Measurements: patent publication US20090105278A1, “Selective inhibitors of human corticosteroid syntheses” (Universitat Des Saarlandes, priority 2004, published 2009)
Where a name gives a salt, the structure may show the parent alone.

Biological target: T1, bovine adrenal CYP11B (Bos taurus, UniProt P15150)
T1 sequence (P15150 25-503): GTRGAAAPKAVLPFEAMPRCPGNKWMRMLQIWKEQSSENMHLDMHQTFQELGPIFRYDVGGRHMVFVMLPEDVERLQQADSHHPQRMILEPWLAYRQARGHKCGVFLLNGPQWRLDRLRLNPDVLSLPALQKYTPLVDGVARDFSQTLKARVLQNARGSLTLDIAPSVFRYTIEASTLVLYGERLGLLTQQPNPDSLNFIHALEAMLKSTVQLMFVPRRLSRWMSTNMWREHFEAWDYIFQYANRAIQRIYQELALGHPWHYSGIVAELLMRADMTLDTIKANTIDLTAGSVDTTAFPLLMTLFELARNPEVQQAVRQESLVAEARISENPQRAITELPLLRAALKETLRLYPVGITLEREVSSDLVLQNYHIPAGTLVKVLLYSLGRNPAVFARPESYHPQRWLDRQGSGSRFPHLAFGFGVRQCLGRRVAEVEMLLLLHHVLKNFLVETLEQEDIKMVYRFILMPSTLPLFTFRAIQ
Experiment: Percent inhibition of bovine CYP11B (adrenal mitochondria)
Settings: read-out: % Inhibition bovine bCYP11B, bovine adrenal mitochondria, 1 mg/ml protein; corticosterone substrate 200 μM; inhibitor 1 μM
Experimental: Bovine adrenal glands obtained freshly after slaughtering were stored in ice cold Tris-sucrose buffer (0.25 M sucrose, 0.05 M Tris; pH 7.4) until processed. After removing the appending adipose tissue, the adrenal medulla was carefully separated from the adrenal cortex using scissors. The pieces of adrenal cortex were coarsely comminuted with scissors, washed with Tris-sucrose buffer, weighed and finely comminuted in the above buffer (2 ml per g of tissue) with a hand mixer. Thereafter, the tissue was homogenized with an Ultra-Turrax mixer. For separating coarse cell debris and the nuclei, the homogenizate was centrifuged twice for 15 min at 900 g and 4° C. The supernatant was subsequently centrifuged for 35 min at 11,000 g for recovering the mitochondrial fraction. For purifying the mitochondrial fraction, the precipitate was resuspended in Tri-sucrose buffer and again centrifuged at 11,000 g for 35 min. This washing step was performed two times in total. After the last centrifugation, the pellet was resuspended in Tris-sucrose buffer containing 0.001 M EDTA and frozen at −70° C.
The substrate corticosterone was dissolved in methanol and diluted with Tris buffer to a final concentration of 200 μM. The inhibitors were also dissolved in methanol and diluted with buffer to a final concentration of 1 μM. […] Corticosterone (200 μM) was incubated with inhibitor (1 μM) and mitochondrial enzyme (0.5 mg/0.5 ml) with the addition of a regenerating system consisting of NADP^+ (1 mM), glucose-6-phosphate (7 mM) and glucose-6-Phosphate dehydrogenase (1 IU/0.5 ml). Up to 5 inhibitors per test could be incubated in duplicate. […] After preincubation for 5 minutes (30° C.; water bath), the reaction was started by adding mitochondrial suspension. […] The blind values were admixed with 250 μl of HCl before the enzyme was pipetted in. The steroids were separated off by shaking with 1 ml of ethyl acetate (10 min). After centrifugation (15,000 g, 10 min), 900 μl of the organic phase was shaken with 250 μl 1 N NaOH (10 min), and 800 μl of supernatant was again washed with 250 μl of buffer. […] 18-OH-corticosterone (retention time: 10 min) and corticosterone (retention time: 21 min) were separated. The height of the 18-OH-corticosterone peak was used for evaluation. The percent inhibition of the 18-hydroxylation of corticosterone by the inhibitors was based on the mediums of the control incubation, taking the blind values into account.

For CC(=O)N1CCN(c2ccc(OCC3COC(Cn4ccnc4)(c4ccc(Cl)cc4Cl)O3)cc2)CC1 (stereo not drawn) [Ketoconazole, reference compound], the inhibition at 1 µM was 78%.

Test system: not given
Experiment: not given
Settings: not given

Going from Fc1ccc2c(c1)CC/C2=C/c1cccnc1 (as salt: hydrochloride) [Compound 5b, 3-[(Z)-(5-Fluoro-2,3-dihydro-1H-indane-1-ylidene)methyl]pyridine Hydrochloride] to Clc1ccc2c(c1)CC/C2=C\c1cccnc1 (as salt: hydrochloride) [Compound 7a, 3-[(E)-(5-Chloro-2.3-dihydro-1H-indane-1-ylidene)methyl]pyridine Hydrochloride], the melting point falls from 245 °C to 234 °C.

Compared with Fc1ccc2c(c1)CC/C2=C\c1ccncc1 (as salt: hydrochloride) [Compound 6a, 4-[(E)-(5-Fluoro-2,3-dihydro-1H-indane-1-ylidene)methyl]pyridine Hydrochloride], Fc1ccc2c(c1)CC/C2=C/c1ccncc1 (as salt: hydrochloride) [Compound 6b, 4-[(Z)-(5-Fluoro-2,3-dihydro-1H-indane-1-ylidene)methyl]pyridine Hydrochloride] is lower in melting point: 224 °C for the first, 223 °C for the second.

Going from Clc1ccc2c(c1)CC/C2=C/c1cccnc1 (as salt: hydrochloride) [Compound 7b, 3-[(Z)-(5-Chloro-2,3-dihydro-1H-indane-1-ylidene)methyl]pyridine Hydrochloride] to Brc1ccc2c(c1)CC/C2=C\c1cccnc1 (as salt: hydrochloride) [Compound 9a, 3-[(E)-(5-Bromo-2,3-dihydro-1H-indane-1-ylidene)methyl]pyridine Hydrochloride], the melting point rises from 238 °C to 241 °C.

Compared with Clc1ccc2c(c1)CC/C2=C\c1ccncc1 (as salt: hydrochloride) [Compound 8a, 4-[(E)-(5-Chloro-2,3-dihydro-1H-indane-1-ylidene)methyl]pyridine Hydrochloride], Brc1ccc2c(c1)CC/C2=C\c1ccncc1 (as salt: hydrochloride) [Compound 10a, 4-[(E)-(5-Bromo-2,3-dihydro-1H-indane-1-ylidene)methyl]pyridine Hydrochloride] is higher in melting point: 213 °C for the first, 266 °C for the second.

Compared with Brc1ccc2c(c1)CC/C2=C/c1cccnc1 (as salt: hydrochloride) [Compound 9b, 3-[(Z)-(5-Bromo-2,3-dihydro-1H-indane-1-ylidene)methyl]pyridine Hydrochloride], COc1ccc2c(c1)CC/C2=C/c1cccnc1 (as salt: hydrochloride) [Compound 11b, 3-[(Z)-(5-Methoxy-2,3-dihydro-1H-indane-1-ylidene)methyl]pyridine Hydrochloride] is lower in melting point: 243 °C for the first, 220 °C for the second.

First: Cc1cccc2c1CC/C2=C\c1cccnc1 (as salt: hydrochloride) [Compound 23a, 3-[(E)-(4-Methyl-2,3-dihydro-1H-indane-1-ylidene)methyl]pyridine Hydrochloride]
Second: C(=C1/CCc2ccccc21)/c1ccncc1 (as salt: oxalate) [Compound 2a, 4-[(E)-2,3-Dihydro-1H-indane-1-ylidenemethyl]pyridine Oxalate]
The melting point of the first is higher: 231 °C for the first, 167 °C for the second.

Compared with Fc1ccc2c(c1)CC/C2=C\c1cccc2cnccc12 (as salt: hydrochloride) [Compound 30a, 5-[(E)-(5-Fluoro-2,3-dihydro-1H-indane-1-ylidene)methyl]isoquinoline Hydrochloride], Fc1ccc2c(c1)CC/C2=C/c1cccc2cnccc12 (as salt: hydrochloride) [Compound 30b, 5-[(Z)-(5-Fluoro-2,3-dihydro-1H-indane-1-ylidene)methyl]isoquinoline Hydrochloride] is lower in melting point: 234 °C for the first, 201 °C for the second.

First: C(=C1/CCc2ccccc21)/c1cnc[nH]1 (as salt: hydrochloride) [Compound 42a, 5-[(E)-2,3-Dihydro-1H-indane-1-ylidenemethyl]-1H-imidazole]
Second: C(=C1\CCc2ccccc21)/c1cnc[nH]1 (as salt: oxalate) [Compound 42b, 5-[(Z)-2,3-Dihydro-1H-ind-1-ylidenemethyl]-1H-imidazolium oxalate]
The melting point of the first is lower: 148 to 151 °C for the first, 196 °C for the second.

c1cncc(-c2ccc3cccc4c3c2CC4)c1 (as salt: salt) [Compound 50, 3-(1,2-Dihydroacenaphthylene-3-yl)pyridine] gave a melting point of 208 °C.
